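GI50 marks 50% less growth. TGI is the concentration that stops growth completely.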
Legend:
Assay in all cases: DTP human tumour cell line panel, 384-well format
[1] = system: MDA-MB-435 melanoma
[2] = system: SF-295 CNS
[3] = system: MOLT-4 leukemia
[4] = system: SN12C renal
[5] = system: UO-31 renal
[6] = system: CCRF-CEM leukemia
[7] = system: PC-3 prostate
[8] = system: SR leukemia
[9] = system: NCI-H460 NSCLC
[10] = system: SK-OV-3 ovarian
[11] = system: RXF 393 renal
[12] = system: OVCAR-8 ovarian
[13] = system: A498 renal
[14] = system: IGROV1 ovarian
[15] = system: CAKI-1 renal
[16] = system: HCT-116 colon
[17] = system: HOP-92 NSCLC
[18] = system: MDA-MB-468 breast
[19] = system: T-47D breast
[20] = system: A549 NSCLC
[21] = system: HS 578T breast
[22] = system: OVCAR-4 ovarian
[23] = system: NCI-H226 lung
[24] = system: HT29 colon
[25] = system: SW-620 colon
[26] = system: MDA-MB-231 breast
[27] = system: NCI/ADR-RES ovarian
[28] = system: RPMI-8226 leukemia
[29] = system: HOP-62 NSCLC
[30] = system: NCI-H522 lung
[31] = system: OVCAR-5 ovarian
[32] = system: BT-549 breast
[33] = system: SK-MEL-28 melanoma
[34] = system: HL-60(TB) leukemia
[35] = system: EKVX NSCLC
[36] = system: OVCAR-3 ovarian
[37] = system: SF-539 CNS
[38] = system: SF-268 CNS
[39] = system: NCI-H23 lung
[40] = system: TK-10 renal
[41] = system: MCF7 breast
[42] = system: SNB-19 CNS
[43] = system: KM12 colon
[44] = system: ACHN renal
[45] = system: HCC-2998 colon
[46] = system: NCI-H322M lung
[47] = system: SNB-75 CNS

In the case of `Cc1ccc(Nc2nc(N)c(C(=O)c3ccc(C#N)cc3)s2)cc1`, the GI50 [1] is reported as 41.9 nM, the TGI [1] is reported as 151 nM and the GI50 [2] is reported as 57.8 nM. The TGI [2] was 298 nM, the GI50 [3] was 128 nM and the TGI [3] was 256 nM. The GI50 [4] was 348 nM, the TGI [4] was 54600 nM and the GI50 [5] was 69 nM. It also gave a TGI [5] of 1720 nM, a GI50 [6] of 170 nM and a TGI [6] of 310 nM. For the same molecule, the GI50 [7] was 47.6 nM, the TGI [7] was over 100000 nM and the GI50 [8] was 18.1 nM. The TGI [8] was 33.4 nM, the GI50 [9] was 178 nM and the TGI [9] was 351 nM. The GI50 [10] was 247 nM, the TGI [10] was 18300 nM and the GI50 [11] was 23.3 nM. It also gave a TGI [11] of 51.2 nM, a GI50 [12] of 86.7 nM and a TGI [12] of 40300 nM. For the same molecule, the GI50 [13] was 298 nM, the TGI [13] was 16400 nM and the GI50 [14] was 73.2 nM. For the same molecule, the TGI [14] was 15300 nM, the GI50 [15] was 56.6 nM and the TGI [15] was 11200 nM. It also gave a GI50 [16] of 243 nM, a TGI [16] of 976 nM and a GI50 [17] of 332 nM. It also gave a TGI [17] of 23300 nM, a GI50 [18] of 185 nM and a TGI [18] of 352 nM. For the same molecule, the GI50 [19] was 743 nM, the TGI [19] was 26300 nM and the GI50 [20] was 247 nM. The TGI [20] was over 100000 nM, the GI50 [21] was 22.1 nM and the TGI [21] was 47.1 nM. It also gave a GI50 [22] of 385 nM, a TGI [22] of 17800 nM and a GI50 [23] of 39.3 nM. The TGI [23] was 2070 nM, the GI50 [24] was 34 nM and the TGI [24] was 28200 nM. It also gave a GI50 [25] of 37.3 nM, a TGI [25] of 13900 nM and a GI50 [26] of 202 nM. For the same molecule, the TGI [26] was 35800 nM, the GI50 [27] was 28.7 nM and the TGI [27] was 69.1 nM. It also gave a GI50 [28] of 30.9 nM, a TGI [28] of 112 nM and a GI50 [29] of 38.6 nM. The TGI [29] was 3610 nM, the GI50 [30] was 121 nM and the TGI [30] was 292 nM. For the same molecule, the GI50 [31] was 1460 nM, the TGI [31] was 55100 nM and the GI50 [32] was 38.2 nM. The TGI [32] was 1310 nM, the GI50 [33] was 14600 nM and the TGI [33] was 74900 nM. For the same molecule, the GI50 [34] was 19.7 nM, the TGI [34] was 34.7 nM and the GI50 [35] was 58.4 nM. The TGI [35] was 51500 nM, the GI50 [36] was 170 nM and the TGI [36] was 414 nM. The GI50 [37] was 188 nM, the TGI [37] was 393 nM and the GI50 [38] was 45.8 nM. For the same molecule, the TGI [38] was 2520 nM, the GI50 [39] was 47.9 nM and the TGI [39] was 1470 nM. For the same molecule, the GI50 [40] was 447 nM, the TGI [40] was 22200 nM and the GI50 [41] was 40.2 nM. It also gave a TGI [41] of 28200 nM, a GI50 [42] of 325 nM and a TGI [42] of over 100000 nM. The GI50 [43] was 42 nM, the TGI [43] was 19900 nM and the GI50 [44] was 72.5 nM. For the same molecule, the TGI [44] was 17800 nM, the GI50 [45] was 105 nM and the TGI [45] was 572 nM. For the same molecule, the GI50 [46] was 481 nM, the TGI [46] was 46400 nM and the GI50 [47] was 37 nM. For the same molecule, the TGI [47] was 520 nM.
